This note sets out measurements from patent US9796706B2, “Inhibitors of Jun N-terminal kinase” (IMAGO PHARMACEUTICALS, INC., priority 2009, dated 2017).

Each structure is given as a SMILES string.

Holding throughout (assay type): biochemical
Holding throughout (settings): procedures of Example 14 (TR-FRET)
In general terms: In TR-FRET formats the signal depends on donor and acceptor labels being close together.

The target of one test is JNK3 (Homo sapiens (Human), UniProt P53779). Kind of test: JNK3 TR-FRET kinase assay (Example 14). An outline of the steps:
(§1)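 Two TR-FRET formats were used for each JNK isoform. In the direct one, preactivated aJNK phosphorylated EPIW-1 at about 1 mM final ATP (RT, 15 min). Both were EDTA-quenched and read by HTRF.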

The next test concerns the target JNK1 (Homo sapiens (Human), UniProt P45983). Kind of test: JNK1 TR-FRET kinase assay (Example 14). An outline of the steps: as §1
The target in a further test is JNK2 (Homo sapiens (Human), UniProt P45984). Kind of test: JNK2 TR-FRET kinase assay (Example 14). The method, boiled down: as §1
Sequence of JNK2 (P45984 whole entry, species assumed): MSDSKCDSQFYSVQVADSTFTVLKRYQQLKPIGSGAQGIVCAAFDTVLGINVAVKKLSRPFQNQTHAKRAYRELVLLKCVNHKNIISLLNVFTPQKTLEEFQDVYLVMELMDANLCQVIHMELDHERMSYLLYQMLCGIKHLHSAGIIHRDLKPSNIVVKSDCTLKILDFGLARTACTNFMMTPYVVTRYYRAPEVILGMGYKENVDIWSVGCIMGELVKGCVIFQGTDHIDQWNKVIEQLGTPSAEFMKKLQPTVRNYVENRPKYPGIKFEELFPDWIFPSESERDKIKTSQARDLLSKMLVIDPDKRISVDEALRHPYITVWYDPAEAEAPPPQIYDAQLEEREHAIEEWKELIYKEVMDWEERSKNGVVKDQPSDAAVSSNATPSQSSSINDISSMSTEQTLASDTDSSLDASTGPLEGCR

Sequence of JNK3 (P53779 whole entry, species assumed, canonical isoform): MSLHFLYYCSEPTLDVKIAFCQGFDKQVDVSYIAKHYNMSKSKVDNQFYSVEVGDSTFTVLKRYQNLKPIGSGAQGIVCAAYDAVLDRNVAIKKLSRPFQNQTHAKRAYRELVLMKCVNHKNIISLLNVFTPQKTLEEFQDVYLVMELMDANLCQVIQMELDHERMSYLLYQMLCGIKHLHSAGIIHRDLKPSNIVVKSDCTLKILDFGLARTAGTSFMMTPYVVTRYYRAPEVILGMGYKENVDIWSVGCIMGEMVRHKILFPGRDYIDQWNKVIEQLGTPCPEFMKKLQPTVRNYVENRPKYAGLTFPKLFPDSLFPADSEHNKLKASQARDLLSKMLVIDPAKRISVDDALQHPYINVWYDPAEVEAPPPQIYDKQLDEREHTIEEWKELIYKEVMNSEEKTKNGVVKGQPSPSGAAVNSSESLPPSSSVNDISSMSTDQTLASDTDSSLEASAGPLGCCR
Sequence of JNK1 (P45983 other isoform, or with tags, fused parts or gaps isoform P45983-2, species assumed): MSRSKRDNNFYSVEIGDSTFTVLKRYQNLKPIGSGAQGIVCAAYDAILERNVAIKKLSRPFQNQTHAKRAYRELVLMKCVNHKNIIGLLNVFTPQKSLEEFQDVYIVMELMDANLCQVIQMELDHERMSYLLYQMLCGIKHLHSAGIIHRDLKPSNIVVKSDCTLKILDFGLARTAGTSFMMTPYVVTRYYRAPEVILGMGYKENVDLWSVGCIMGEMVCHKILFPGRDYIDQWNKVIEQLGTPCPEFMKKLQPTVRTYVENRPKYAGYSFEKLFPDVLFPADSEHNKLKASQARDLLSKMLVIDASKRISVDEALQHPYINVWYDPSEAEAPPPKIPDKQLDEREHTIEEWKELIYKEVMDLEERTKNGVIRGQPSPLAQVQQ

Consider `O=C(Cc1cccc2ncc(C(F)(F)F)cc12)Nc1scc(Br)c1-c1nc[nH]n1` [N-(4-bromo-3-(1H-1,2,4-triazol-3-yl)thiophen-2-yl)-2-(3-(trifluoromethyl)quinolin-5-yl)acetamide], for which the IC50 (commonly the point on the concentration scale where inhibition reaches its midpoint) against JNK3 was less than 100 nM; at JNK1, less than 100 nM; on JNK2, 100 to 10000 nM.
Take `N#Cc1csc(NC(=O)Cn2c(=O)ccc3cc(C(F)(F)F)ccc32)c1-c1ncco1` [N-(4-cyano-3-(oxazol-2-yl)thiophen-2-yl)-2-(2-oxo-6-(trifluoromethyl)quinolin-1(2H)-yl)acetamide]: the IC50 against JNK3, against JNK1 and at JNK2 was less than 100 nM in each case.
Regarding `COc1ccc(CC(=O)Nc2ccsc2-c2nc(C3CCCO3)n[nH]2)cc1` (stereo not drawn) [2-(4-methoxyphenyl)-N-(2-(3-(tetrahydrofuran-2-yl)-1H-1,2,4-triazol-5-yl)thiophen-3-yl)acetamide], the IC50 against JNK3, against JNK1 and against JNK2 was 100 to 10000 nM in each case.
Take `Cc1noc(-c2c(C)csc2NC(=O)Cc2cccc3ccccc23)n1` [N-(4-methyl-3-(3-methyl-1,2,4-oxadiazol-5-yl)thiophen-2-yl)-2-(naphthalen-1-yl)acetamide]: the IC50 at JNK3, against JNK1 and against JNK2 was 100 to 10000 nM each time.
For the compound `COc1ccc(CC(=O)Nc2ccsc2-c2c[nH]cn2)cc1` [N-(2-(1H-imidazol-4-yl)thiophen-3-yl)-2-(4-methoxyphenyl)-acetamide], the IC50 was greater than 10000 nM on JNK3, greater than 10000 nM against JNK1 and greater than 50000 nM on JNK2.
As to `COc1ccc(CC(=O)Nc2ccsc2-c2cnccn2)cc1` [2-(4-methoxyphenyl)-N-(2-(pyrazin-2-yl)thiophen-3-yl)acetamide], the IC50 on JNK3, on JNK1 and against JNK2 was 100 to 10000 nM in each case.
Take `O=C(CN1C(=O)CCc2cc(C(F)(F)F)ccc21)Nc1scc(Br)c1-c1ncn[nH]1` [N-(4-bromo-3-(1H-1,2,4-triazol-5-yl)thiophen-2-yl)-2-(2-oxo-6-(trifluoromethyl)-3,4-dihydroquinolin-1(2H)-yl)acetamide]: the IC50 against JNK3, against JNK1 and against JNK2 was less than 100 nM throughout.
With `O=C(Cc1cccc2cnccc12)Nc1ccsc1-c1nccs1` [2-(isoquinolin-5-yl)-N-(2-(thiazol-2-yl)thiophen-3-yl)acetamide], the half-inhibitory concentration (IC50) against JNK3, against JNK1 and on JNK2 was 100 to 10000 nM in each case.
In the case of `Cn1ncnc1-c1sccc1NC(=O)Cc1cccc2ccccc12` [N-(2-(1-methyl-1H-1,2,4-triazol-5-yl)thiophen-3-yl)-2-(naphthalen-1-yl)acetamide], the IC50 against JNK3, against JNK1 and at JNK2 was greater than 50000 nM each time.
`COc1ccc(CC(=O)Nc2scc(C)c2-c2nc(C)n[nH]2)cc1` [2-(4-methoxyphenyl)-N-(4-methyl-3-(3-methyl-1H-1,2,4-triazol-5-yl)thiophen-2-yl)acetamide]: the 50% inhibitory concentration (IC50) against JNK3, against JNK1 and against JNK2 was 100 to 10000 nM throughout.
As for `N#Cc1ccc2ccc(=O)n(CC(=O)Nc3scc(Br)c3-c3ncn[nH]3)c2c1` [N-(4-bromo-3-(1H-1,2,4-triazol-5-yl)thiophen-2-yl)-2-(7-cyano-2-oxoquinolin-1(2H)-yl)acetamide], the IC50 against JNK3, against JNK1 and on JNK2 was less than 100 nM in each case.
As for `O=C(Cc1cncc2ccccc12)Nc1scc(Br)c1-c1nnc[nH]1` [N-(4-bromo-3-(4H-1,2,4-triazol-3-yl)thiophen-2-yl)-2-(isoquinolin-4-yl)acetamide], the IC50 against JNK3 is less than 100 nM; on JNK1 it was less than 100 nM; on JNK2, 100 to 10000 nM.
`COc1ccc(CC(=O)Nc2ccsc2-c2nc(C(F)(F)F)n[nH]2)cc1` [2-(4-methoxyphenyl)-N-(2-(3-(trifluoromethyl)-1H-1,2,4-triazol-5-yl)thiophen-3-yl)acetamide]: the values for the half-maximal inhibitory concentration (IC50) on JNK3, on JNK1 and against JNK2 were 100 to 10000 nM, 100 to 10000 nM and greater than 10000 nM, respectively.
Consider `O=C(Cn1c(=O)ccc2nc(C(F)(F)F)ccc21)Nc1scc(Cl)c1-c1ncn[nH]1` [N-(4-chloro-3-(1H-1,2,4-triazol-5-yl)thiophen-2-yl)-2-(2-oxo-6-(trifluoromethyl)-1,5-naphthyridin-1(2H)-yl)acetamide], for which the IC50 against JNK3, against JNK1 and at JNK2 was less than 100 nM in each case.
With `O=C(Cn1c(=O)ccn2nc(C(F)(F)F)cc12)Nc1scc(Br)c1-c1ncn[nH]1` [N-(4-bromo-3-(1H-1,2,4-triazol-5-yl)thiophen-2-yl)-2-(5-oxo-2-(trifluoromethyl)pyrazolo[1,5-a]pyrimidin-4(5H)-yl)acetamide], the IC50 on JNK3, against JNK1 and on JNK2 was less than 100 nM in each case.
As to `Cn1cnc(-c2c(Br)csc2NC(=O)CN2C(=O)CCc3ncccc32)n1` [N-(4-bromo-3-(1-methyl-1H-1,2,4-triazol-3-yl)thiophen-2-yl)-2-(2-oxo-3,4-dihydro-1,5-naphthyridin-1(2H)-yl)acetamide], the IC50 against JNK3, at JNK1 and against JNK2 was less than 100 nM each time.
On to `Cc1n[nH]c(-c2c(Cl)csc2NC(=O)CN2C(=O)CCc3ncccc32)n1` [N-(4-chloro-3-(3-methyl-1H-1,2,4-triazol-5-yl)thiophen-2-yl)-2-(2-oxo-3,4-dihydro-1,5-naphthyridin-1(2H)-yl)acetamide], for which the IC50 against JNK3, against JNK1 and at JNK2 was less than 100 nM throughout.
For the compound `Cc1n[nH]c(-c2sccc2NC(=O)Cc2ccc3c(c2)OCCO3)n1` [2-(2,3-dihydrobenzo[b][1,4]dioxin-6-yl)-N-(2-(3-methyl-1H-1,2,4-triazol-5-yl)thiophen-3-yl)acetamide], the IC50 at JNK3, against JNK1 and on JNK2 was 100 to 10000 nM in each case.
As to `Cn1ccc(-c2sccc2NC(=O)Cc2cccc3ccccc23)n1` [N-(2-(1-methyl-1H-pyrazol-3-yl)thiophen-3-yl)-2-(naphthalen-1-yl)acetamide], the IC50 against JNK3 was greater than 10000 nM; against JNK1, greater than 10000 nM; against JNK2 it was greater than 50000 nM.
With `O=C(Cn1c(=O)ccc2cc(C(F)(F)F)ccc21)Nc1sc(Cl)cc1-c1ncn[nH]1` [N-(5-chloro-3-(1H-1,2,4-triazol-5-yl)thiophen-2-yl)-2-(2-oxo-6-(trifluoromethyl)quinolin-1(2H)-yl)acetamide], the IC50 against JNK3 was 100 to 10000 nM; against JNK1 it was less than 100 nM; against JNK2, 100 to 10000 nM.
Turning to `Cc1csc(NC(=O)Cc2cccc3nccnc23)c1-c1ncn[nH]1` [N-(4-methyl-3-(1H-1,2,4-triazol-5-yl)thiophen-2-yl)-2-(quinoxalin-5-yl)acetamide], the IC50 at JNK3, against JNK1 and at JNK2 was 100 to 10000 nM throughout.
Regarding `O=C(CN1C(=O)CCc2ccc(Br)cc21)Nc1scc(Br)c1-c1ncn[nH]1` [2-(7-bromo-2-oxo-3,4-dihydroquinolin-1(2H)-yl)-N-(4-bromo-3-(1H-1,2,4-triazol-5-yl)thiophen-2-yl)acetamide], the IC50 against JNK3, against JNK1 and against JNK2 was 100 to 10000 nM in each case.
On to `O=C(Cc1cccc2ccccc12)Nc1ccsc1-c1ncn[nH]1` [N-(2-(1H-1,2,4-triazol-5-yl)thiophen-3-yl)-2-(naphthalen-1-yl)acetamide], for which the 50% inhibitory concentration (IC50) on JNK3, against JNK1 and on JNK2 was 100 to 10000 nM in each case.
With `O=C(Cc1cccc2cnccc12)Nc1scc(Br)c1-c1ncn[nH]1` [N-(4-bromo-3-(1H-1,2,4-triazol-5-yl)thiophen-2-yl)-2-(isoquinolin-5-yl)acetamide], the 50% inhibitory concentration (IC50) at JNK3, against JNK1 and on JNK2 was less than 100 nM in each case.
In the case of `Cc1csc(NC(=O)Cc2ccc(OCCn3ccnc3)cc2)c1-c1ncn[nH]1` [2-(4-(2-(1H-imidazol-1-yl)ethoxy)phenyl)-N-(4-methyl-3-(1H-1,2,4-triazol-5-yl)thiophen-2-yl)acetamide], the IC50 against JNK3, against JNK1 and against JNK2 was 100 to 10000 nM throughout.
Turning to `Cn1ccnc1-c1sccc1NC(=O)Cc1cccc2ccccc12` [N-(2-(1-methyl-1H-imidazol-2-yl)thiophen-3-yl)-2-(naphthalen-1-yl)acetamide], the IC50 on JNK3 was greater than 10000 nM; on JNK1, greater than 10000 nM; against JNK2, greater than 50000 nM.
As for `O=C(Cn1c(=O)ccc2cnc(C(F)(F)F)cc21)Nc1scc(Br)c1-c1ncn[nH]1` [N-(4-bromo-3-(1H-1,2,4-triazol-5-yl)thiophen-2-yl)-2-(2-oxo-7-(trifluoromethyl)-1,6-naphthyridin-1(2H)-yl)acetamide], the IC50 against JNK3, against JNK1 and against JNK2 was less than 100 nM throughout.
`O=C(Cc1cc(C(F)(F)F)cc2ncccc12)Nc1scc(Br)c1-c1nnc[nH]1` [N-(4-bromo-3-(4H-1,2,4-triazol-3-yl)thiophen-2-yl)-2-(7-(trifluoromethyl)quinolin-5-yl)acetamide]: the IC50 against JNK3, on JNK1 and against JNK2 was 100 to 10000 nM in each case.
As to `O=C(Cc1cccc2cnccc12)Nc1ccsc1-c1cscn1` [2-(isoquinolin-5-yl)-N-(2-(thiazol-4-yl)thiophen-3-yl)acetamide], the IC50 against JNK3, on JNK1 and on JNK2 was 100 to 10000 nM throughout.
Turning to `O=C(Cn1c(=O)ccc2c(C(F)(F)F)cccc21)Nc1scc(Br)c1-c1ncn[nH]1` [N-(4-bromo-3-(1H-1,2,4-triazol-5-yl)thiophen-2-yl)-2-(2-oxo-5-(trifluoromethyl)quinolin-1(2H)-yl)acetamide], the IC50 is less than 100 nM at JNK3, less than 100 nM at JNK1 and 100 to 10000 nM against JNK2.
